The values below are quoted from earlier work in patent publication US20070021304A1, “Non-salt glyphosate herbicide composition and method for preparing the same” (Sinon Corporation, priority 2005, published 2007).

Each structure is given as a SMILES string.

The conditions of this series: pH 1.9, 20° C.

In the case of `O=C(O)CNCP(=O)(O)O` [Glyphosate], the water solubility result is given as “approximately 10.5 g/L”.
